According to ChEMBL document CHEMBL1201862, “PubChem BioAssay data set” (2004):
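Values below derive from 48-hour exposures of cells grown in 96-well plates, with endpoints linearly interpolated between the two concentrations bracketing the appropriate inhibition level. At the GI50, growth is halved.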 The source made the active and inactive calls. No stated cut-off is given here; in the data, active = GI50 up to about 1.1 µM and inactive = higher.

Assays:
Assay in all cases: NCI tumour cell line growth inhibition, 48 h
PC-3 = system: PC-3
RXF 393 = system: RXF 393
ACHN = system: ACHN
SNB-75 = system: SNB-75
SK-OV-3 = system: SK-OV-3
UACC-62 = system: UACC-62
SF-268 = system: SF-268
NCI-H460 = system: NCI-H460
MDA-MB-231 = system: MDA-MB-231
HCC 2998 = system: HCC 2998
IGROV-1 = system: IGROV-1
NCI/ADR-RES = system: NCI/ADR-RES
SW-620 = system: SW-620
NCI-H522 = system: NCI-H522
K562 = system: K562
SK-MEL-28 = system: SK-MEL-28
LOX IMVI = system: LOX IMVI
OVCAR-5 = system: OVCAR-5
CAKI-1 = system: CAKI-1

Measured: GI50

Cc1nc2ccccc2c(=O)n1NC(=O)c1ccccn1
inactive: PC-3 > 100 µM | RXF 393 > 100 µM | ACHN > 100 µM | SNB-75 35.7 µM | SK-OV-3 > 100 µM | UACC-62 > 100 µM | SF-268 > 100 µM | NCI-H460 > 100 µM | MDA-MB-231 > 100 µM | HCC 2998 > 100 µM | IGROV-1 > 100 µM | NCI/ADR-RES > 100 µM | SW-620 > 100 µM | NCI-H522 > 100 µM | K562 > 100 µM | SK-MEL-28 > 100 µM | LOX IMVI > 100 µM

CCc1n[nH]c(=O)n1/N=C/c1ccccc1O
inactive: PC-3 > 100 µM | RXF 393 > 100 µM | ACHN > 100 µM | SNB-75 > 100 µM | SK-OV-3 > 100 µM | UACC-62 > 100 µM | SF-268 > 100 µM | MDA-MB-231 > 100 µM | HCC 2998 > 100 µM | IGROV-1 64.9 µM | NCI/ADR-RES > 100 µM | OVCAR-5 > 100 µM | SW-620 > 100 µM | NCI-H522 > 100 µM | K562 > 100 µM | SK-MEL-28 > 100 µM | LOX IMVI > 100 µM

COc1ccc(C(=O)/C=C2\c3ccccc3C(=O)N2C)cc1
inactive: PC-3 89.1 µM | RXF 393 22.9 µM | ACHN 89.5 µM | SNB-75 22.8 µM | SK-OV-3 74.8 µM | UACC-62 41.1 µM | SF-268 61.2 µM | NCI-H460 36.1 µM | MDA-MB-231 > 100 µM | IGROV-1 28 µM | NCI/ADR-RES 38 µM | OVCAR-5 > 100 µM | SW-620 > 100 µM | CAKI-1 36.4 µM | NCI-H522 31.9 µM | K562 44.1 µM | SK-MEL-28 > 100 µM | LOX IMVI 46.8 µM

CC(=O)c1c(O)nnc(-c2ccc(Cl)cc2)c1-c1ccc(Cl)cc1
inactive: PC-3 37.4 µM | RXF 393 38.9 µM | ACHN 22 µM | SK-OV-3 40.8 µM | UACC-62 12.4 µM | SF-268 > 100 µM | NCI-H460 33 µM | MDA-MB-231 21.2 µM | HCC 2998 61.8 µM | IGROV-1 26.2 µM | NCI/ADR-RES 30.1 µM | OVCAR-5 > 100 µM | SW-620 62.5 µM | CAKI-1 31.8 µM | K562 30.4 µM | SK-MEL-28 41.9 µM | LOX IMVI 21.7 µM

C/C(=C\CBr)CCC(Br)C(C)(C)Br (configuration not stated)
inactive: PC-3 > 100 µM | RXF 393 > 100 µM | ACHN > 100 µM | SNB-75 > 91.8 µM | SK-OV-3 > 100 µM | UACC-62 > 100 µM | SF-268 > 100 µM | NCI-H460 > 100 µM | MDA-MB-231 > 100 µM | HCC 2998 > 100 µM | IGROV-1 > 100 µM | NCI/ADR-RES > 100 µM | OVCAR-5 > 100 µM | SW-620 > 100 µM | NCI-H522 > 100 µM | K562 > 100 µM | SK-MEL-28 > 100 µM

COC(=O)C(I(OS(=O)(=O)c1ccc(C)cc1)c1ccccc1)=P(c1ccccc1)(c1ccccc1)c1ccccc1
inactive: PC-3 18.9 µM | RXF 393 20.5 µM | ACHN 16.6 µM | SK-OV-3 25.1 µM | UACC-62 18.7 µM | SF-268 17.5 µM | NCI-H460 29.9 µM | MDA-MB-231 30.1 µM | HCC 2998 19.2 µM | IGROV-1 17.1 µM | NCI/ADR-RES 64 µM | OVCAR-5 28.6 µM | CAKI-1 40.2 µM | NCI-H522 13 µM | K562 12.7 µM | SK-MEL-28 15.1 µM
